pIC50: −log10 of the molar value.
Each compound was assayed against T1, human FOXO1 (constitutively active form Thr24Ala, Ser256Ala, Ser319Ala) (Homo sapiens, UniProt Q12778, S256A/S319A/T24A) (assay: FOXO1 inhibitor activity assay: cell-based transcriptional (luciferase) reporter assay in HEK293 cells). Conditions: HEK293 cells transfected with insulin response element firefly luciferase reporter, FOXO1 and Renilla luciferase; 10-point dose response 50 μM to 2.5 nM; 24 hours.
T1 construct: expressed in transfected cells; host or cells: HEK293 cells transfected with pcDNA3.1 plasmid
T1 sequence (Q12778 whole entry T24A/S256A/S319A): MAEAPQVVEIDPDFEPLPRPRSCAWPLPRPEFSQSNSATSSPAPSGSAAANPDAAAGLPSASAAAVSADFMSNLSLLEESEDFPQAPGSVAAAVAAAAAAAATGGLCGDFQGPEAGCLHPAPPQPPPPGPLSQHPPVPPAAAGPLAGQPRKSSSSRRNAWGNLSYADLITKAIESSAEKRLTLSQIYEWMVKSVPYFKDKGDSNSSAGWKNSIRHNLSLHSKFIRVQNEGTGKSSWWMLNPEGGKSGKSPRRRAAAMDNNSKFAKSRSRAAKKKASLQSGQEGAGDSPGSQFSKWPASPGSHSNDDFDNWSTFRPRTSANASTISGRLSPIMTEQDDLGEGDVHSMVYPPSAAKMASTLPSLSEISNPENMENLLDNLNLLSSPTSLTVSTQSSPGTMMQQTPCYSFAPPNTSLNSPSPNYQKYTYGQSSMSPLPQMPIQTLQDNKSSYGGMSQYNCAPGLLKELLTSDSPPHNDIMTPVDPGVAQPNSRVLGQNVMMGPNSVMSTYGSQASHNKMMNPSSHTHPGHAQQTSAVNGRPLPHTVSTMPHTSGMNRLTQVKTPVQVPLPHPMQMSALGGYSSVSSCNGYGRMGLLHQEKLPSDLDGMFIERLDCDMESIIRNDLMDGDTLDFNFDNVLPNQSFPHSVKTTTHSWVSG
Procedure: The inhibitory activities of compounds on FOXO1 were determined by a cell-based transcriptional reporter assay. HEK293 cells were plated onto either 384-well poly-D-lysine coated plates (at 7500 cells per well) or 96-well plates (at 20000 cells per well) in low glucose Eagle's Minimum Essential Medium (EMEM) containing 1% fetal bovine serum, and incubated overnight at 37° C. and 5% CO2. […] Duplicate wells were included for each treatment condition. Cells were incubated for 24 hours at 37° C. and 5% CO2. Luciferase activities in each well were measured using Dual-Glog Luciferase Assay System (Promega) according to manufacturer's protocol and an Envision plate reader suitable for luminescence detection. Firefly luciferase activity was divided by Renilla luciferase activity to calculate a ratio for each well. The ratio in wells containing cells transfected with all 3 plasmids listed above and receiving only DMSO without compound addition was set to 100%. The ratio in wells containing cells transfected with plasmid (1), plasmid (3), and pcDNA3.1 containing the open reading frame of red fluorescent protein (instead of human FOXO1) and treated with DMSO was set to 0%. The ratio in each well receiving compound treatment was normalized and expressed as a percentage. Data were fit by 4-parameter logistic regression to determine IC50 and maximal inhibition values. Each compound was tested in a minimum of 2 independent experiments.

Structure (SMILES) | pIC50
CCOC(=O)[C@@H]1CCCN1c1ccc(C(=O)Nc2cc(-c3nc4ccccc4[nH]3)[nH]n2)cn1 [Compound A-56, ethyl (2S)-1-[5-[[5-(1H-benzimidazol-2-yl)-1H-pyrazol-3-yl]carbamoyl]-2-pyridyl]pyrrolidine-2-carboxylate] | < 6.00
CN1CCN(c2ccc(C(=O)Nc3cc(-c4nc5ccccc5[nH]4)[nH]n3)cn2)CC1 [Compound A-21, N-[5-(1H-benzimidazol-2-yl)-1H-pyrazol-3-yl]-6-(4-methyl-piperazin-1-yl)pyridine-3-carboxamide] | > 7.00
Cn1nc(NC(=O)c2ccc(N3CCOCC3)nc2)cc1-c1nc2ccccc2[nH]1 [Compound A-210, N-[5-(1H-benzimidazol-2-yl)-1-methyl-pyrazol-3-yl]-6-morpholino-pyridine-3-carboxamide] | > 7.00
C[C@@H]1COCCN1c1ccc(C(=O)Nc2cc(-c3nc4ccccc4[nH]3)n(C)n2)cn1 [Compound A-229, N-[5-(1H-benzimidazol-2-yl)-1-methyl-pyrazol-3-yl]-6-[(3R)-3-methylmorpholin-4-yl]pyridine-3-carboxamide] | 6.52 to 7.00
CN1CCN(c2ccc(C(=O)Nc3cc(-c4nc5ccccc5[nH]4)[nH]n3)cn2)CC1=O [Compound A-243, N-[5-(1H-benzimidazol-2-yl)-1H-pyrazol-3-yl]-6-(4-methyl-3-oxo-piperazin-1-yl)pyridine-3-carboxamide] | 6.00 to 6.52
O=C(Nc1cc(-c2nc3ccccc3[nH]2)[nH]n1)c1ccc(N2CCN(C3COC3)CC2)cc1 [Compound A-220, N-[5-(1H-benzimidazol-2-yl)-1H-pyrazol-3-yl]-4-[4-(oxetan-3-yl)piperazin-1-yl]benzamide] | > 7.00
Cn1nc(NC(=O)c2ccc(N3CCOCC3)nc2)cc1-c1nc2cc(F)ccc2[nH]1 [Compound A-148, N-[5-(5-fluoro-1H-benzimidazol-2-yl)-1-methyl-pyrazol-3-yl]-6-morpholino-pyridine-3-carboxamide] | 6.52 to 7.00
CN1CCN(c2ccc(C(=O)Nc3cc(-c4nc5ccccc5[nH]4)[nH]n3)nn2)CC1 [Compound A-177, N-[5-(1H-benzimidazol-2-yl)-1H-pyrazol-3-yl]-6-(4-methylpiperazin-1-yl)pyridazine-3-carboxamide] | < 6.00
O=C(Nc1cc(-c2nc3cc(C(F)(F)F)ccc3[nH]2)[nH]n1)c1ccc(OCCO)c(Cl)c1 [Compound A-123, 3-chloro-4-(2-hydroxyethoxy)-N-[5-[5-(trifluoromethyl)-1H-benzimidazol-2-yl]-1H-pyrazol-3-yl]benzamide formic acid] | > 7.00
COc1cc(F)c2[nH]c(-c3cc(NC(=O)c4ccc(N5CCN(C6COC6)CC5)cc4)nn3C)nc2c1 [Compound A-219, N-[5-(7-fluoro-5-methoxy-1H-benzimidazol-2-yl)-1-methyl-pyrazol-3-yl]-4-[4-(oxetan-3-yl)piperazin-1-yl]benzamide] | > 7.00
COCCOc1ccc(C(=O)Nc2cc(-c3nc4ccccc4[nH]3)[nH]n2)cc1Cl [Compound A-29, N-[5-(1H-benzimidazol-2-yl)-1H-pyrazol-3-yl]-3-chloro-4-(2-methoxyethoxy)benzamide] | > 7.00
O=C(Nc1cc(-c2nc3cc(Cl)ccc3[nH]2)[nH]n1)c1ccc(N2CCC(CO)CC2)nc1 [Compound A-86, N-[5-(5-chloro-1H-benzimidazol-2-yl)-1H-pyrazol-3-yl]-6-[4-(hydroxymethyl)-1-piperidyl]pyridine-3-carboxamide] | < 6.00
CN(C)C1CCN(c2ccc(C(=O)Nc3cc(-c4nc5ccccc5[nH]4)[nH]n3)cn2)CC1 [Compound A-46, N-[5-(1H-benzimidazol-2-yl)-1H-pyrazol-3-yl]-6-[4-(dimethylamino)-1-piperidyl]pyridine-3-carboxamide] | > 7.00
Cc1ccc2[nH]c(-c3cc(NC(=O)c4ccc(N5CCOCC5)nc4)n[nH]3)nc2c1 [Compound A-100, N-[5-(5-methyl-1H-benzimidazol-2-yl)-1H-pyrazol-3-yl]-6-morpholino-pyridine-3-carboxamide] | 6.52 to 7.00
Cn1nc(NC(=O)c2ccc(N3CCN4C(=O)CCC4C3)nc2)cc1-c1nc2ccccc2[nH]1 (centres unmarked) [Compound A-228, N-[5-(1H-benzimidazol-2-yl)-1-methyl-pyrazol-3-yl]-6-(6-oxo-1,3,4,7,8,8a-hexahydropyrrolo[1,2-a]pyrazin-2-yl)pyridine-3-carboxamide] | 6.52 to 7.00
COCCCOc1ccc(C(=O)Nc2cc(-c3nc4cc(OC)ccc4[nH]3)[nH]n2)cc1Cl [Compound A-58, 3-chloro-N-[5-(5-methoxy-1H-benzimidazol-2-yl)-1H-pyrazol-3-yl]-4-(3-methoxypropoxy)benzamide] | > 7.00

Structure (SMILES) | pIC50
COc1ccc(C(=O)Nc2cc(-c3nc4ccccc4[nH]3)n(CCO)n2)cc1Cl [Compound A-195, N-[5-(1H-benzimidazol-2-yl)-1-(2-hydroxyethyl)pyrazol-3-yl]-3-chloro-4-methoxy-benzamide] | 6.52 to 7.00
Cc1ccc2[nH]c(-c3cc(NC(=O)c4ccc(N5CCC(O)CC5)nc4)n[nH]3)nc2c1 [Compound A-99, 6-(4-hydroxy-1-piperidyl)-N-[5-(5-methyl-1H-benzimidazol-2-yl)-1H-pyrazol-3-yl]pyridine-3-carboxamide] | 6.52 to 7.00
O=C(Nc1cc(-c2nc3cc(Cl)ccc3[nH]2)[nH]n1)c1ccc(N2CCOCC2)nc1 [Compound A-88, N-[5-(5-chloro-1H-benzimidazol-2-yl)-1H-pyrazol-3-yl]-6-morpholino-pyridine-3-carboxamide] | < 6.00
O=C(O)COc1ccc(C(=O)Nc2cc(-c3nc4ccccc4[nH]3)[nH]n2)cn1 [Compound A-62, 2-[[5-[[5-(1H-benzimidazol-2-yl)-1H-pyrazol-3-yl]carbamoyl]-2-pyridyl]-oxy]acetic acid] | < 6.00
COc1cc(F)c2[nH]c(-c3cc(NC(=O)c4ccc(OC)c(Cl)c4)n[nH]3)nc2c1 [Compound A-127, 3-chloro-N-[5-(7-fluoro-5-methoxy-1H-benzimidazol-2-yl)-1H-pyrazol-3-yl]-4-methoxy-benzamide] | > 7.00
O=C(Nc1cc(-c2nc3ccccc3[nH]2)[nH]n1)c1ccc(N2CCC[C@H]2CO)nc1 [Compound A-52, N-[5-(1H-benzimidazol-2-yl)-1H-pyrazol-3-yl]-6-[(2S)-2-(hydroxymethyl)-pyrrolidin-1-yl]pyridine-3-carboxamide] | 6.52 to 7.00
Cn1nc(NC(=O)c2ccc(N3CCO[C@H](CO)C3)nc2)cc1-c1nc2ccccc2[nH]1 [Compound A-251, N-[5-(1H-benzimidazol-2-yl)-1-methyl-pyrazol-3-yl]-6-[(2S)-2-(hydroxymethyl)morpholin-4-yl]pyridine-3-carboxamide] | > 7.00
COCCOc1ccc(C(=O)Nc2cc(-c3nc4cc(F)ccc4[nH]3)n(C)n2)cc1Cl [Compound A-166, 3-chloro-N-[5-(5-fluoro-1H-benzimidazol-2-yl)-1-methyl-pyrazol-3-yl]-4-(2-methoxyethoxy)benzamide] | > 7.00
COC1CN(c2ccc(C(=O)Nc3cc(-c4nc5cccc(F)c5[nH]4)n(C)n3)cn2)C1 [Compound A-137, N-[5-(4-fluoro-1H-benzimidazol-2-yl)-1-methyl-pyrazol-3-yl]-6-(3-methoxyazetidin-1-yl)pyridine-3-carboxamide] | 6.00 to 6.52
Cn1nc(NC(=O)c2ccc(N3CCC4(COC4)C3)nc2)cc1-c1nc2ccccc2[nH]1 [Compound A-268, N-[5-(1H-benzimidazol-2-yl)-1-methyl-pyrazol-3-yl]-6-(2-oxa-7-azaspiro[3.4]octan-7-yl)pyridine-3-carboxamide] | 6.52 to 7.00
COCCN1CCN(c2ccc(C(=O)Nc3cc(-c4nc5cc(F)ccc5[nH]4)n(C)n3)cn2)CC1 [Compound A-149] | 6.52 to 7.00
O=C(O)CN1CCN(c2ccc(C(=O)Nc3cc(-c4nc5ccccc5[nH]4)[nH]n3)cn2)CC1 [Compound A-156, 2-[4-[5-[[5-(1H-benzimidazol-2-yl)-1H-pyrazol-3-yl]carbamoyl]-2-pyridyl]piperazin-1-yl]acetic acid] | < 6.00
COCCOc1ccc2[nH]c(-c3cc(NC(=O)c4ccc(OC)c(Cl)c4)n[nH]3)nc2c1 [Compound A-256, 3-chloro-4-methoxy-N-[5-[5-(2-methoxyethoxy)-1H-benzimidazol-2-yl]-1H-pyrazol-3-yl]benzamide] | > 7.00
COc1cc(F)c2[nH]c(-c3cc(NC(=O)c4ccc(N5CCN(C)CC5)nc4)nn3C)nc2c1 [Compound A-191, N-[5-(7-fluoro-5-methoxy-1H-benzimidazol-2-yl)-1-methyl-pyrazol-3-yl]-6-(4-methylpiperazin-1-yl)pyridine-3-carboxamide] | 6.52 to 7.00
Cc1nc(N2CCN(C)CC2)ccc1C(=O)Nc1cc(-c2nc3ccccc3[nH]2)n(C)n1 [Compound A-253, N-[5-(1H-benzimidazol-2-yl)-1-methyl-pyrazol-3-yl]-2-methyl-6-(4-methylpiperazin-1-yl)pyridine-3-carboxamide] | 6.52 to 7.00
COC1CN(c2cnc(C(=O)Nc3cc(-c4nc5ccccc5[nH]4)[nH]n3)cn2)C1 [Compound A-186, N-[5-(1H-benzimidazol-2-yl)-1H-pyrazol-3-yl]-5-(3-methoxyazetidin-1-yl)pyrazine-2-carboxamide] | < 6.00

Reference: patent US20230416228A1 (Forkhead Biotherapeutics, Inc., priority 2020, published 2023)
